Source: patent publication US20100167275A1, “Potassium channel mutants of the yeast Saccharomyces cerevisiae and their use for screening eukaryotic potassium channels” (sanofi-aventis Deutschland GmbH, priority 2000, published 2010)

Legend:
gpIRK1 = molecular target: T1, gpIRK1 (Cavia porcellus, UniProt P52185); assay: Complementation of growth deficiency by gpIRK1 in the presence of CsCl; type: cell-based, guinea pig; conditions: 2 mM CsCl
T1 construct: expressed in transfected cells; host or cells: Saccharomyces cerevisiae Δtrk1 Δtrk2 (YM193) and Δtrk1 Δtrk2 Δtok1 (YM198), vector p423-GPD3
T1 sequence (P52185 1-427): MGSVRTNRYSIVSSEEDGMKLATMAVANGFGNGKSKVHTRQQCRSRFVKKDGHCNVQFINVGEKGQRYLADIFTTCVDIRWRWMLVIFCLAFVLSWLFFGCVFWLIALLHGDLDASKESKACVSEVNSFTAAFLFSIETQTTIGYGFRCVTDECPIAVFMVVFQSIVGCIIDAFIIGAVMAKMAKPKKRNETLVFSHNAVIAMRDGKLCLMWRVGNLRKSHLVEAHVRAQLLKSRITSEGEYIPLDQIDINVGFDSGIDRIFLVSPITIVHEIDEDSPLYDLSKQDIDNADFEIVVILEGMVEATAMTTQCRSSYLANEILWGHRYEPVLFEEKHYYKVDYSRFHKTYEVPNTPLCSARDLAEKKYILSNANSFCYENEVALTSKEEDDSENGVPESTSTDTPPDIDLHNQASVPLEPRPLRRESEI
From the text: (§1) Each of the strains YM168 (Δtrk1 Δtrk2) and YM182 (Δtrk1 Δtrk2 Δtok1) was transformed with the human potassium channels Kv1.5 ((Fedida, D. et al, 1998); YM190 and YM195) and HERG1 ((Fedida, D. et al., 1998); YM191 and YM196) in p423-GPD3, respectively, as yeast expression vector. gpIRK1 ((Tang, W. et al., 1995); YM193 and YM198) acted as positive control in p423-GPD3 as yeast expression vector (Mumberg, D. et al., 1995; Ronicke, V. et al., 1997). The blank vector p423-GPD3 (YM189 and YM194) acted as negative control. The transformed yeast strains were plated onto (−)HIS/80 mM KCl medium. After this, patches of single colonies were replica-plated onto DPM/5 mM KCl (pH 6.5) to check the capacity of complementing the potassium deficiency.

human Kv1.5 channel = molecular target: T2, human Kv1.5 channel (Homo sapiens, UniProt P22460, DEL187-187/DEL55-55/P188G/P307A/R154P); assay: Complementation of growth deficiency by Kv1.5 in the presence of activators; type: cell-based
T2 construct: expressed in transfected cells; host or cells: Saccharomyces cerevisiae Δtrk1 Δtrk2 Δtok1 (YM195; also Δtrk1 Δtrk2 YM190), vector p423-GPD3
From the text: as §1
(§2) Kv1.5: Rb^+ extends the hyperpolarization phase. This means that the inwardly directed K^+ flux is more prolonged and increases the possibility of complementing the growth deficiency.
The yeast strains YM 194 and YM 195 were tested in DPM/-HIS/5 mM KCl with 1 mM RbCl for the different growth behavior in liquid medium. To this end, 10 ml of overnight culture were set up in DPM/-HIS/80 mM KCl and, next morning, brought to an OD600 of 0.05 with the relevant media (final volume: 20 ml). The optical density at 600 nm was determined at defined intervals with the aid of a photometer.

human HERG1 channel = molecular target: T3, human HERG1 channel (Homo sapiens, UniProt Q12809); assay: Complementation of growth deficiency by HERG1 on culture plates in the presence of activators; type: cell-based; conditions: 2 mM CsCl, DPM 5 mM KCl pH 6.5, FIG. 4
T3 construct: expressed in transfected cells; host or cells: Saccharomyces cerevisiae Δtrk1 Δtrk2 Δtok1 (YM182 background; strain YM196), vector p423-GPD3
From the text: as §1, §2
HERG: Cs^+ extends the hyperpolarization phase. This means that the inwardly directed K^+ flux is more prolonged and increases the possibility of complementing the growth deficiency. This channel is inhibited by Cs^+. IRK1: Cs^+ blocks this channel.

[1] = tested on: triple mutant Δtrk1Δtrk2Δtok1 with p423GPD; assay: Growth of triple mutant Δtrk1Δtrk2Δtok1 with blank vector p423GPD (YM194), OD 620 nm; type: cell-based, Saccharomyces cerevisiae; conditions: 2 mM RbCl; DPM-HIS 5 mM KCl, pH 6.5, 24 hours growth, starting OD 0.01
Protocol: The cell density was measured after 24 hours' growth (density of the starter culture: 0.01 OD620) via determination of the optical density at a wavelength of 620 nm. The values corresponded to the average of in each case 4 measurements±SD.

[2] = molecular target: T4, human potassium channel ROMK2 (Homo sapiens, UniProt P48048); assay: Growth of triple mutant Δtrk1Δtrk2Δtok1 expressing ROMK2 (YM256), OD 620 nm; type: cell-based; conditions: 2 mM RbCl
T4 construct: expressed in transfected cells; host or cells: Saccharomyces cerevisiae Δtrk1Δtrk2Δtok1, strain YM256, vector p423GPD
T4 sequence (P48048 1-372 isoform P48048-2): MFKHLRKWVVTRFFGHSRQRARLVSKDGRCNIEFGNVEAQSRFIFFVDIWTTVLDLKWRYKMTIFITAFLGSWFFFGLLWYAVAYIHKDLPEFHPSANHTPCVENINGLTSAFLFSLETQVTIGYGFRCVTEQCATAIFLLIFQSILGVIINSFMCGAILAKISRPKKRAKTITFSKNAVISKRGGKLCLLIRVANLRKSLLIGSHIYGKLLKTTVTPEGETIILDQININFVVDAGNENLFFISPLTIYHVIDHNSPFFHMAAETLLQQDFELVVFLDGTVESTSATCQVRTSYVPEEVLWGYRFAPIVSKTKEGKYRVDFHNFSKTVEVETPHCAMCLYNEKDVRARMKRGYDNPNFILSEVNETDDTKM
From the text: The human potassium channel ROMK2 ((Shuck, M. E. et al., 1994; Bock, J. H. et al., 1997); Sequence SEQ ID NO. 31 hROMK2) was subcloned into the yeast vector p423GPD and transformed into the triple mutant Δtrk1Δtrk2Δtok1.

T2 sequence (P22460 with tags, fused parts or gaps DEL55-55/R154P/DEL187-187/P188G/P307A): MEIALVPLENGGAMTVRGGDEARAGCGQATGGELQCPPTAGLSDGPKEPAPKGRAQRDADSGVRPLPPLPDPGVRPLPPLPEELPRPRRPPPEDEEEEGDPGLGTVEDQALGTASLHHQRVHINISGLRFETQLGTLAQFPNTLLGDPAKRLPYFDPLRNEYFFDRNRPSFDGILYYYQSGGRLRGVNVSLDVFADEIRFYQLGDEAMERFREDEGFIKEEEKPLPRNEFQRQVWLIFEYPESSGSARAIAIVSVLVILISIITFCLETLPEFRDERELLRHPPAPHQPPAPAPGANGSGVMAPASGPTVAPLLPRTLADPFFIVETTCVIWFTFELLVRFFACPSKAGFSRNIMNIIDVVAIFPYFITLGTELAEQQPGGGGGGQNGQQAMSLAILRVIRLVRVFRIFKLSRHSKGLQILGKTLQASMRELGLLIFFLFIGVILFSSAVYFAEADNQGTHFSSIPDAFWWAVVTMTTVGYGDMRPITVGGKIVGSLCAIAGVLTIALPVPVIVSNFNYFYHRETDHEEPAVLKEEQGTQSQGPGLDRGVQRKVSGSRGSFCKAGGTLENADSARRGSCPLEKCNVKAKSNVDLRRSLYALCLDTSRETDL
T3 sequence (Q12809 whole entry): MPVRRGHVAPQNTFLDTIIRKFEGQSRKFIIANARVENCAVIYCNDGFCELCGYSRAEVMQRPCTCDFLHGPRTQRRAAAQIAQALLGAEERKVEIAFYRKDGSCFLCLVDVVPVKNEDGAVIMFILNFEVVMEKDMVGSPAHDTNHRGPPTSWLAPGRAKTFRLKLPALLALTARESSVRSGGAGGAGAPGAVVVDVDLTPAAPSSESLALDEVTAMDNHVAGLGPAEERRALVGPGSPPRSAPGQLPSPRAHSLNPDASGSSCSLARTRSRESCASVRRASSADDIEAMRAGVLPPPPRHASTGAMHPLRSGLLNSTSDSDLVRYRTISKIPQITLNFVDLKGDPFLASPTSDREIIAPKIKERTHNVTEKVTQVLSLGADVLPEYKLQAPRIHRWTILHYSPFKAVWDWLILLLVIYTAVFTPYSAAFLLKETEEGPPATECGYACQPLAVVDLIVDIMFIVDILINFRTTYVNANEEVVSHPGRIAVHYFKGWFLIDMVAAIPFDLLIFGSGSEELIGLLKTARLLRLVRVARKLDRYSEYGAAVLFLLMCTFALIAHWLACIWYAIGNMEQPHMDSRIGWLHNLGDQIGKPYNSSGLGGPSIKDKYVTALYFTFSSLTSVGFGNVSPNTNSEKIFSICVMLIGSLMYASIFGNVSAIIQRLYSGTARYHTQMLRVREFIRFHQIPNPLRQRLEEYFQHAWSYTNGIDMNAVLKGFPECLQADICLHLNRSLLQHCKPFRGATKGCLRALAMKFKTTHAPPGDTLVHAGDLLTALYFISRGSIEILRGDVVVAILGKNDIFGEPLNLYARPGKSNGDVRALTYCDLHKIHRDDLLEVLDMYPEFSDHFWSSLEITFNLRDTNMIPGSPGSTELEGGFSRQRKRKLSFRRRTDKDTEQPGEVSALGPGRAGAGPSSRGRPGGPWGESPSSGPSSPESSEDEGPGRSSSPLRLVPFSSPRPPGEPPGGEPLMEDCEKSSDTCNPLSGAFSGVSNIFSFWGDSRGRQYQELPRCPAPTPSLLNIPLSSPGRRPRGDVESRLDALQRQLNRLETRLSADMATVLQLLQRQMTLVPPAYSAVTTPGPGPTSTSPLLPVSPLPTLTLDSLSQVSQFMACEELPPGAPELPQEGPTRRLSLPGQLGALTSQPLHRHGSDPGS

SMILES: [Cl-].[Cs+] [CsCl]
- complementation of the growth deficiency by gpIRK1 in the presence of CsCl (gpIRK1): inhibited
- complementation of the growth deficiency by Kv1.5 in the presence of CsCl (human Kv1.5 channel; 2 mM CsCl): inhibited
- complementation of the growth deficiency of the Δtrk1 Δtrk2 Δtok1 mutant by human HERG1 in the presence of activator (human HERG1 channel): fully complementing

SMILES: [Cl-].[Rb+] [RbCl]
- 194 (average growth of p423GPD strain YM194, OD) [1]: 0.048
- 256 (average growth of p423GPD-ROMK2 strain YM256, OD) ([2]; DPM-HIS 5 mM KCl, pH 6.5, 24 hours growth, starting OD 0.01): 0.44
- Signal to noise ratio S/N ([2]; YM256 versus YM194, DPM-HIS 5 mM KCl, pH 6.5, 24 hours): 8.46
- complementation of the growth deficiency of the Δtrk1 Δtrk2 Δtok1 mutant by human Kv1.5 in the presence of activator (human Kv1.5 channel; 2 mM RbCl, culture plates, DPM 5 mM KCl pH 6.5, FIG. 3): fully complementing
